# ± gives the expanded uncertainty stated by the source.
# Assay: xn = mol fraction of the nth substance listed
# Conditions: 101 kPa, Liquid; for viscosity: Concentric cylinders viscometry; for mass density: Vibrating tube method
compound,measurement,setting,value
COC(C)(C)C [2-methoxy-2-methylpropane] + CCCCCCO,viscosity,"293.15 K, x1 = 0.0103",5.223 ± 0.22 mPa·s
same,viscosity,"293.15 K, x1 = 0.0204",5.039 ± 0.21 mPa·s
same,viscosity,"293.15 K, x1 = 0.0304",4.87 ± 0.2 mPa·s
same,viscosity,"293.15 K, x1 = 0.0408",4.696 ± 0.2 mPa·s
same,viscosity,"293.15 K, x1 = 0.0495",4.562 ± 0.19 mPa·s
same,viscosity,"293.15 K, x1 = 0.0625",4.361 ± 0.18 mPa·s
same,viscosity,"293.15 K, x1 = 0.0705",4.252 ± 0.18 mPa·s
same,viscosity,"293.15 K, x1 = 0.0799",4.113 ± 0.17 mPa·s
same,viscosity,"293.15 K, x1 = 0.0912",3.959 ± 0.17 mPa·s
same,viscosity,"293.15 K, x1 = 0.0994",3.852 ± 0.16 mPa·s
same,viscosity,"293.15 K, x1 = 0.1508",3.253 ± 0.14 mPa·s
same,viscosity,"293.15 K, x1 = 0.205",2.733 ± 0.11 mPa·s
same,viscosity,"293.15 K, x1 = 0.2579",2.318 ± 0.096 mPa·s
same,viscosity,"293.15 K, x1 = 0.3",2.047 ± 0.085 mPa·s
same,viscosity,"293.15 K, x1 = 0.3574",1.724 ± 0.071 mPa·s
same,viscosity,"293.15 K, x1 = 0.4012",1.53 ± 0.063 mPa·s
same,viscosity,"293.15 K, x1 = 0.4501",1.324 ± 0.055 mPa·s
same,viscosity,"293.15 K, x1 = 0.5028",1.145 ± 0.047 mPa·s
same,viscosity,"293.15 K, x1 = 0.5637",0.9727 ± 0.04 mPa·s
same,viscosity,"293.15 K, x1 = 0.598",0.8885 ± 0.037 mPa·s
same,viscosity,"293.15 K, x1 = 0.6508",0.7769 ± 0.032 mPa·s
same,viscosity,"293.15 K, x1 = 0.7",0.6805 ± 0.028 mPa·s
same,viscosity,"293.15 K, x1 = 0.7493",0.6088 ± 0.025 mPa·s
same,viscosity,"293.15 K, x1 = 0.7994",0.5397 ± 0.022 mPa·s
same,viscosity,"293.15 K, x1 = 0.8514",0.4782 ± 0.02 mPa·s
same,viscosity,"293.15 K, x1 = 0.903",0.424 ± 0.018 mPa·s
same,viscosity,"293.15 K, x1 = 0.9095",0.418 ± 0.017 mPa·s
same,viscosity,"293.15 K, x1 = 0.9204",0.4077 ± 0.017 mPa·s
same,viscosity,"293.15 K, x1 = 0.9294",0.3999 ± 0.017 mPa·s
same,viscosity,"293.15 K, x1 = 0.9397",0.3904 ± 0.016 mPa·s
same,viscosity,"293.15 K, x1 = 0.9495",0.382 ± 0.016 mPa·s
same,viscosity,"293.15 K, x1 = 0.9589",0.374 ± 0.016 mPa·s
same,viscosity,"293.15 K, x1 = 0.969",0.3661 ± 0.015 mPa·s
same,viscosity,"293.15 K, x1 = 0.9791",0.3582 ± 0.015 mPa·s
same,viscosity,"293.15 K, x1 = 0.9899",0.3508 ± 0.015 mPa·s
same,mass density,"293.15 K, x1 = 0.0103",818.26 ± 0.63 kg/m3
same,mass density,"293.15 K, x1 = 0.0204",817.68 ± 0.62 kg/m3
same,mass density,"293.15 K, x1 = 0.0304",817.11 ± 0.61 kg/m3
same,mass density,"293.15 K, x1 = 0.0408",816.51 ± 0.6 kg/m3
same,mass density,"293.15 K, x1 = 0.0495",816 ± 0.59 kg/m3
same,mass density,"293.15 K, x1 = 0.0625",815.23 ± 0.58 kg/m3
same,mass density,"293.15 K, x1 = 0.0705",814.74 ± 0.57 kg/m3
same,mass density,"293.15 K, x1 = 0.0799",814.17 ± 0.56 kg/m3
same,mass density,"293.15 K, x1 = 0.0912",813.49 ± 0.55 kg/m3
same,mass density,"293.15 K, x1 = 0.0994",813.01 ± 0.55 kg/m3
same,mass density,"293.15 K, x1 = 0.1508",809.87 ± 0.5 kg/m3
same,mass density,"293.15 K, x1 = 0.205",806.42 ± 0.46 kg/m3
same,mass density,"293.15 K, x1 = 0.2579",802.99 ± 0.43 kg/m3
same,mass density,"293.15 K, x1 = 0.3",800.17 ± 0.4 kg/m3
same,mass density,"293.15 K, x1 = 0.3574",796.2 ± 0.37 kg/m3
same,mass density,"293.15 K, x1 = 0.4012",793.09 ± 0.35 kg/m3
same,mass density,"293.15 K, x1 = 0.4501",789.54 ± 0.33 kg/m3
same,mass density,"293.15 K, x1 = 0.5028",785.58 ± 0.31 kg/m3
same,mass density,"293.15 K, x1 = 0.5637",780.83 ± 0.29 kg/m3
same,mass density,"293.15 K, x1 = 0.598",778.11 ± 0.29 kg/m3
same,mass density,"293.15 K, x1 = 0.6508",773.76 ± 0.27 kg/m3
same,mass density,"293.15 K, x1 = 0.7",769.62 ± 0.26 kg/m3
same,mass density,"293.15 K, x1 = 0.7493",765.32 ± 0.26 kg/m3
same,mass density,"293.15 K, x1 = 0.7994",760.79 ± 0.25 kg/m3
same,mass density,"293.15 K, x1 = 0.8514",755.91 ± 0.25 kg/m3
same,mass density,"293.15 K, x1 = 0.903",750.84 ± 0.24 kg/m3
same,mass density,"293.15 K, x1 = 0.9095",750.2 ± 0.24 kg/m3
same,mass density,"293.15 K, x1 = 0.9204",749.1 ± 0.24 kg/m3
same,mass density,"293.15 K, x1 = 0.9294",748.16 ± 0.24 kg/m3
same,mass density,"293.15 K, x1 = 0.9397",747.1 ± 0.24 kg/m3
same,mass density,"293.15 K, x1 = 0.9495",746.08 ± 0.24 kg/m3
same,mass density,"293.15 K, x1 = 0.9589",745.09 ± 0.24 kg/m3
same,mass density,"293.15 K, x1 = 0.969",744.04 ± 0.24 kg/m3
same,mass density,"293.15 K, x1 = 0.9791",742.95 ± 0.24 kg/m3
same,mass density,"293.15 K, x1 = 0.9899",741.78 ± 0.24 kg/m3
same,viscosity,"298.15 K, x1 = 0.0103",4.46 ± 0.19 mPa·s
same,viscosity,"298.15 K, x1 = 0.0204",4.314 ± 0.18 mPa·s
same,viscosity,"298.15 K, x1 = 0.0304",4.175 ± 0.17 mPa·s
same,viscosity,"298.15 K, x1 = 0.0408",4.036 ± 0.17 mPa·s
same,viscosity,"298.15 K, x1 = 0.0495",3.925 ± 0.16 mPa·s
same,viscosity,"298.15 K, x1 = 0.0625",3.761 ± 0.16 mPa·s
same,viscosity,"298.15 K, x1 = 0.0705",3.67 ± 0.15 mPa·s
same,viscosity,"298.15 K, x1 = 0.0799",3.555 ± 0.15 mPa·s
same,viscosity,"298.15 K, x1 = 0.0912",3.433 ± 0.14 mPa·s
same,viscosity,"298.15 K, x1 = 0.0994",3.343 ± 0.14 mPa·s
same,viscosity,"298.15 K, x1 = 0.1508",2.842 ± 0.12 mPa·s
same,viscosity,"298.15 K, x1 = 0.205",2.44 ± 0.1 mPa·s
same,viscosity,"298.15 K, x1 = 0.2579",2.067 ± 0.086 mPa·s
same,viscosity,"298.15 K, x1 = 0.3",1.828 ± 0.076 mPa·s
same,viscosity,"298.15 K, x1 = 0.3574",1.56 ± 0.065 mPa·s
same,viscosity,"298.15 K, x1 = 0.4012",1.368 ± 0.056 mPa·s
same,viscosity,"298.15 K, x1 = 0.4501",1.197 ± 0.049 mPa·s
same,viscosity,"298.15 K, x1 = 0.5028",1.045 ± 0.043 mPa·s
same,viscosity,"298.15 K, x1 = 0.5637",0.8921 ± 0.037 mPa·s
same,viscosity,"298.15 K, x1 = 0.598",0.8156 ± 0.034 mPa·s
same,viscosity,"298.15 K, x1 = 0.6508",0.7149 ± 0.029 mPa·s
same,viscosity,"298.15 K, x1 = 0.7",0.6305 ± 0.026 mPa·s
same,viscosity,"298.15 K, x1 = 0.7493",0.5658 ± 0.023 mPa·s
same,viscosity,"298.15 K, x1 = 0.7994",0.5033 ± 0.021 mPa·s
same,viscosity,"298.15 K, x1 = 0.8514",0.4484 ± 0.019 mPa·s
same,viscosity,"298.15 K, x1 = 0.903",0.397 ± 0.017 mPa·s
same,viscosity,"298.15 K, x1 = 0.9095",0.3923 ± 0.017 mPa·s
same,viscosity,"298.15 K, x1 = 0.9204",0.3825 ± 0.016 mPa·s
same,viscosity,"298.15 K, x1 = 0.9294",0.3756 ± 0.016 mPa·s
same,viscosity,"298.15 K, x1 = 0.9397",0.3661 ± 0.015 mPa·s
same,viscosity,"298.15 K, x1 = 0.9495",0.3603 ± 0.015 mPa·s
same,viscosity,"298.15 K, x1 = 0.9589",0.3542 ± 0.015 mPa·s
same,viscosity,"298.15 K, x1 = 0.969",0.3441 ± 0.015 mPa·s
same,viscosity,"298.15 K, x1 = 0.9791",0.337 ± 0.014 mPa·s
same,viscosity,"298.15 K, x1 = 0.9899",0.3303 ± 0.014 mPa·s
same,mass density,"298.15 K, x1 = 0.0103",814.71 ± 0.63 kg/m3
same,mass density,"298.15 K, x1 = 0.0204",814.12 ± 0.62 kg/m3
same,mass density,"298.15 K, x1 = 0.0304",813.53 ± 0.61 kg/m3
same,mass density,"298.15 K, x1 = 0.0408",812.92 ± 0.6 kg/m3
same,mass density,"298.15 K, x1 = 0.0495",812.4 ± 0.59 kg/m3
same,mass density,"298.15 K, x1 = 0.0625",811.62 ± 0.58 kg/m3
same,mass density,"298.15 K, x1 = 0.0705",811.12 ± 0.57 kg/m3
same,mass density,"298.15 K, x1 = 0.0799",810.54 ± 0.56 kg/m3
same,mass density,"298.15 K, x1 = 0.0912",809.83 ± 0.55 kg/m3
same,mass density,"298.15 K, x1 = 0.0994",809.36 ± 0.54 kg/m3
same,mass density,"298.15 K, x1 = 0.1508",806.15 ± 0.5 kg/m3
same,mass density,"298.15 K, x1 = 0.205",802.7 ± 0.46 kg/m3
same,mass density,"298.15 K, x1 = 0.2579",799.15 ± 0.43 kg/m3
same,mass density,"298.15 K, x1 = 0.3",796.26 ± 0.4 kg/m3
same,mass density,"298.15 K, x1 = 0.3574",792.23 ± 0.37 kg/m3
same,mass density,"298.15 K, x1 = 0.4012",789.05 ± 0.35 kg/m3
same,mass density,"298.15 K, x1 = 0.4501",785.43 ± 0.33 kg/m3
same,mass density,"298.15 K, x1 = 0.5028",781.39 ± 0.31 kg/m3
same,mass density,"298.15 K, x1 = 0.5637",776.53 ± 0.3 kg/m3
same,mass density,"298.15 K, x1 = 0.598",773.75 ± 0.29 kg/m3
same,mass density,"298.15 K, x1 = 0.6508",769.32 ± 0.27 kg/m3
same,mass density,"298.15 K, x1 = 0.7",765.05 ± 0.27 kg/m3
same,mass density,"298.15 K, x1 = 0.7493",760.67 ± 0.26 kg/m3
same,mass density,"298.15 K, x1 = 0.7994",756.02 ± 0.25 kg/m3
same,mass density,"298.15 K, x1 = 0.8514",751.04 ± 0.25 kg/m3
same,mass density,"298.15 K, x1 = 0.903",745.85 ± 0.24 kg/m3
same,mass density,"298.15 K, x1 = 0.9095",745.2 ± 0.24 kg/m3
same,mass density,"298.15 K, x1 = 0.9204",744.07 ± 0.24 kg/m3
same,mass density,"298.15 K, x1 = 0.9294",743.14 ± 0.24 kg/m3
same,mass density,"298.15 K, x1 = 0.9397",742.04 ± 0.24 kg/m3
same,mass density,"298.15 K, x1 = 0.9495",741.01 ± 0.24 kg/m3
same,mass density,"298.15 K, x1 = 0.9589",739.99 ± 0.24 kg/m3
same,mass density,"298.15 K, x1 = 0.969",738.91 ± 0.24 kg/m3
same,mass density,"298.15 K, x1 = 0.9791",737.79 ± 0.24 kg/m3
same,mass density,"298.15 K, x1 = 0.9899",736.6 ± 0.24 kg/m3

# From the NIST ThermoML archive (doi:10.1016/j.jct.2011.02.018)
